# Biological target: T1, α5β1 integrin (Homo sapiens, UniProt P05556+P08648)
# T1 construct: α5β1 integrin mediated adhesion of K562 cells; host or cells: K562 human erythroleukaemia cells (integrin, endogenous); E. coli (Fn9-10 ligand, made in house)
# Experiment: In vitro cell adhesion assay: α5β1 integrin mediated adhesion of K562 cells to fibronectin fragment Fn9-10
# Assay type: cell-based
# Settings: human K562 erythroleukaemia cells; Fn9-10 coated plates; 0.2 mM MnCl; 45 minutes at 37° C.; crystal violet absorbance at 590 nm
# Excerpt: The assay determined the ability of compounds to inhibit the α5β1 integrin mediated adhesion of K562 cells to the ligand, a fragment of human fibronectin. The human K562 erythroleukaemia cell line (LGC Promochem, Teddington, Middlesex, UK, Catalogue No. CCL-243) was routinely maintained in RPMI 1640 medium (Sigma-Aldrich Company Ltd, Gillingham, Dorset SP8 4XT, Catalogue No. R0883) containing 10% heat-inactivated foetal calf serum (PAA lab GmbH, Pasching, Austria Catalogue No. PAA-A15-043) and 1% glutamax-1 (Invitrogen Ltd. Paisley, UK Catalogue No. 35050-038) at 37° C. with 5% CO2 at densities between 1×10^5 and 1×10^6 cells/ml.
# A DNA fragment encoding the domains 9-10 (amino-acids 1325-1509) of human fibronectin (Swiss-Prot Accession No. P02751) was isolated from cDNA libraries using standard molecular biology and PCR cloning techniques. The cDNA fragment was sub-cloned into a pT7#3.3 expression vector containing a GST-epitope tag (developed at AstraZeneca; Bagnall et al., Protein Expression and Purification, 2003, 27: 1-11), and the fragment termed Fn9-10. Following expression in E. coli, the expressed protein was purified using the GST-tag using standard purification techniques.
# For adhesion assay, a 96-well flat bottomed plate (Greiner Bio one ltd., Gloucester GL10 3SX Catalogue No. 655101) was coated overnight at 4° C. with 100 μl of 20 μg/ml Fn9-10 ligand in Dulbecco's PBS (Gibco #14190-94). The plate was then washed twice with 200 μl of PBS and blocked with 100 μl of 3% BSA (SigmaA7888) in PBS for 1 hour at 37° C. The plates were then washed again 3 times with 200 μl of PBS and left empty. […]
# After fixation, the ethanol was flicked off to waste and 100 μl of 0.1% Crystal violet stain was added to each well, and incubated at ambient temperature for 15 minutes. […] Finally, 100 μl of deionised water was added to each well and the absorbance was determined at 590 nm on a spectrophotometer. The minimum value was subtracted from all values, and the absorbance signal was plotted against compound concentration to generate IC50 data.
# T1 sequence (P08648 42-894 limits assumed): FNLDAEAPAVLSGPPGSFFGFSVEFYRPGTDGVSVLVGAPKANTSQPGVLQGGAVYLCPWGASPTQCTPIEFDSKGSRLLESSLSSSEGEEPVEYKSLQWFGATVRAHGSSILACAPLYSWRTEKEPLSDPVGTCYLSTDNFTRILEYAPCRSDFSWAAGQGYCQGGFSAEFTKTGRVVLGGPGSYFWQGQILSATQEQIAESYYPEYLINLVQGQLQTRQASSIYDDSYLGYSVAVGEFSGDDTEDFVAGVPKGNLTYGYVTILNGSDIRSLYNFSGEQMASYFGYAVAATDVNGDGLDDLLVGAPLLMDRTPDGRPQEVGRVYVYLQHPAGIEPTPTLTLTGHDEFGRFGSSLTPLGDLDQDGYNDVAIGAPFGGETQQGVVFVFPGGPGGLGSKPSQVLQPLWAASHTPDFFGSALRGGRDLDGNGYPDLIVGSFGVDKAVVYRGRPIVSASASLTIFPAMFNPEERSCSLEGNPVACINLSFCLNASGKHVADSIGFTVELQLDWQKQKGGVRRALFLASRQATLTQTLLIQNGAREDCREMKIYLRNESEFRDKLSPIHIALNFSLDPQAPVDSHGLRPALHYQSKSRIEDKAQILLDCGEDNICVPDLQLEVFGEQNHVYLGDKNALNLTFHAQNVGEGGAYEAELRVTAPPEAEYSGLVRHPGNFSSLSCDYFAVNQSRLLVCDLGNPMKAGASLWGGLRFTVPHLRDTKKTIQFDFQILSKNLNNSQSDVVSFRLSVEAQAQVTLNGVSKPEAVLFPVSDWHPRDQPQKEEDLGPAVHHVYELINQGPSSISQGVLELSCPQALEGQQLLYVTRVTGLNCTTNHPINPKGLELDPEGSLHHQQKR
# T1 sequence (P08648 895-1049 partner limits assumed): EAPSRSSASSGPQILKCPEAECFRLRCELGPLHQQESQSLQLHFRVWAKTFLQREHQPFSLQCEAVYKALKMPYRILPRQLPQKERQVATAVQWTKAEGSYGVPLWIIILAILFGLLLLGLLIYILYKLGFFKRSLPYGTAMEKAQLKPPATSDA
# T1 sequence (P05556 21-798): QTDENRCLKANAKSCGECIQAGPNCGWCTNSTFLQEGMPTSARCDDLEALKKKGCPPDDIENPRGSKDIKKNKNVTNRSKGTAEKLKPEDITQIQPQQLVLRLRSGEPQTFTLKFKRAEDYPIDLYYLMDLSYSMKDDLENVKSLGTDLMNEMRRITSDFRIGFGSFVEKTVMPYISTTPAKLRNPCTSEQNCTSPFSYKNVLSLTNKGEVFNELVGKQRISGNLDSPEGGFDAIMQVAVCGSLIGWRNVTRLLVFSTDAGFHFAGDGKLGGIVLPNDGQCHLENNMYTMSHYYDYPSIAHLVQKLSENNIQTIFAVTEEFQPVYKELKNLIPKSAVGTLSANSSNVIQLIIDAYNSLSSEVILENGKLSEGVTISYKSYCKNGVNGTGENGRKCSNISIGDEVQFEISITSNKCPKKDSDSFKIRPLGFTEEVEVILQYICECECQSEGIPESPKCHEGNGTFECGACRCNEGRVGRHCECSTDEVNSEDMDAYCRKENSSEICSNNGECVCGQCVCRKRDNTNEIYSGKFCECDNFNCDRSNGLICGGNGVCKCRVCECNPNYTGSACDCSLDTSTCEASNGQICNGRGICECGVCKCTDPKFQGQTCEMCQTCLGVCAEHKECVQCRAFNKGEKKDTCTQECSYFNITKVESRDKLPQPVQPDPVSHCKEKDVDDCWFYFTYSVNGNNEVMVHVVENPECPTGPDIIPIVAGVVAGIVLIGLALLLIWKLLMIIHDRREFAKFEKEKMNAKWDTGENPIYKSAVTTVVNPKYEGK
row,IC50,Structure (SMILES)
1,≥ 30 µM,"Cc1cccc(Cl)c1C(=O)N[C@@H](Cc1ccc(C2=CCN(Cc3ccc(F)cc3)CC2)cc1)C(=O)O [N-(2-chloro-6-methylbenzoyl)-4-[1-(4-fluorobenzyl)-1,2,3,6-tetrahydropyridin-4-yl]-L-phenylalanine]"
2,≥ 30 µM,"COc1cccc(CN2CCC(c3ccc(C[C@H](NC(=O)c4c(Cl)cccc4Cl)C(=O)O)cc3)CC2)c1 [N-(2,6-dichlorobenzoyl)-4-[1-(3-methoxybenzyl)piperidin-4-yl]-L-phenylalanine]"
3,≥ 30 µM,"O=C(N[C@@H](Cc1ccc(C2CCN(Cc3ccccc3F)CC2)cc1)C(=O)O)c1c(Cl)cccc1Cl [N-(2,6-dichlorobenzoyl)-4-[1-(2-fluorobenzyl)piperidin-4-yl]-L-phenylalanine]"

# Reference: patent publication US20090137601A1, “L-Phenylalanine Derivatives” (ASTRAZENECA AB, priority 2005, published 2009)
